Laboratory results as given in US11655240B1, “Crystal form of compound and fumaric acid, pharmaceutical composition and method for treating coronavirus-induced diseases” (priority 2022, dated 2023).

How the values were obtained:
Format in all cases: physicochemical
[1] = Particle size distribution by laser particle size analyzer Mastersizer 3000; settings: dispersed in n-heptane
Method: The particle size distribution of the APIs prepared in the examples of the present disclosure was determined by using a laser particle size analyzer Mastersizer 3000 (Malvern Panalytical, UK). Specifically, about 20 mg of the API (for example, API 5) prepared in the example of the present disclosure was taken, dispersed in 8 mL of n-heptane, sonicated for 10 seconds, added to a sample dispersion unit until the shading degree was in the range from 10% to 20%, and then measured. The stirring speed of the dispersion chamber was 2000 rpm, and the duration was 10 s.

[2] = Dynamic vapor sorption (DVS) analysis
Method: Dynamic vapor sorption analysis was performed using DVS Intrinsic (SMS, UK). The analysis adopted a gradient mode, the humidity change was 50%, 95%, 0%, and 50% in sequence, the humidity change of each gradient in the range from 0% to 90% was 10%, and the end point of the gradient was determined by dm/dt method. The end point of the gradient was determined in response to the dm/dt being less than 0.002% and maintained for 10 minutes.

[3] = Stability of crystal form A, influencing factor and accelerated stability experiments
From the text: In addition, the inventors also investigated the stability of the crystal form A under conditions of the influencing factor experiment and the accelerated stability experiment, and the results is as follows: […]

[4] = Thermogravimetric analysis (TGA); settings: 10° C./min
Method: A thermogravimetric analyzer TA Discovery 55 (TA, US) was used. 2 mg to 5 mg of the sample was placed in an equilibrated open aluminum sample pan and automatically weighed in a TGA oven. The sample was heated to the final temperature at a rate of 10° C./min with a nitrogen purge rate of 60 mL/min at the sample and 40 mL/min at the balance.

SMILES | Particle size D50 of API [1] [μm] | Particle size D90 of API [1] [μm] | also measured
Cn1cnc(Cn2c(=O)[nH]/c(=N\c3cc4cn(C)nc4cc3Cl)n(Cc3cc(F)c(F)cc3F)c2=O)n1 [API 1] | 28.9 | 58.6 | 
Cn1cnc(Cn2c(=O)[nH]/c(=N\c3cc4cn(C)nc4cc3Cl)n(Cc3cc(F)c(F)cc3F)c2=O)n1 [API 2] | 20.3 | 40.1 | 
Cn1cnc(Cn2c(=O)[nH]/c(=N\c3cc4cn(C)nc4cc3Cl)n(Cc3cc(F)c(F)cc3F)c2=O)n1 [API 3] | 8.4 | 10.2 | 
Cn1cnc(Cn2c(=O)[nH]/c(=N\c3cc4cn(C)nc4cc3Cl)n(Cc3cc(F)c(F)cc3F)c2=O)n1 [API 4] | 23.5 | 46.7 | 
Cn1cnc(Cn2c(=O)[nH]/c(=N\c3cc4cn(C)nc4cc3Cl)n(Cc3cc(F)c(F)cc3F)c2=O)n1 [API 5] | 18.6 | 34.2 | 
Cn1cnc(Cn2c(=O)[nH]/c(=N\c3cc4cn(C)nc4cc3Cl)n(Cc3cc(F)c(F)cc3F)c2=O)n1 [API 6] | 8.9 | 15.6 | 
Cn1cnc(Cn2c(=O)[nH]/c(=N\c3cc4cn(C)nc4cc3Cl)n(Cc3cc(F)c(F)cc3F)c2=O)n1 [API 7] | 22.3 | 45.5 | 
Cn1cnc(Cn2c(=O)[nH]/c(=N\c3cc4cn(C)nc4cc3Cl)n(Cc3cc(F)c(F)cc3F)c2=O)n1 [API 8] | 20.1 | 40.7 | 
Cn1cnc(Cn2c(=O)[nH]/c(=N\c3cc4cn(C)nc4cc3Cl)n(Cc3cc(F)c(F)cc3F)c2=O)n1 [API 9] | 8.8 | 10.4 | 
Cn1cnc(Cn2c(=O)[nH]/c(=N\c3cc4cn(C)nc4cc3Cl)n(Cc3cc(F)c(F)cc3F)c2=O)n1 [API 10] | 22.1 | 43.4 | 
Cn1cnc(Cn2c(=O)[nH]/c(=N\c3cc4cn(C)nc4cc3Cl)n(Cc3cc(F)c(F)cc3F)c2=O)n1 [API 11] | 20.6 | 42.7 | 
Cn1cnc(Cn2c(=O)[nH]/c(=N\c3cc4cn(C)nc4cc3Cl)n(Cc3cc(F)c(F)cc3F)c2=O)n1 [API 12] | 8.3 | 10.9 | 
Cn1cnc(Cn2c(=O)[nH]/c(=N\c3cc4cn(C)nc4cc3Cl)n(Cc3cc(F)c(F)cc3F)c2=O)n1 [API 13] | 22.4 | 48.9 | 
Cn1cnc(Cn2c(=O)[nH]/c(=N\c3cc4cn(C)nc4cc3Cl)n(Cc3cc(F)c(F)cc3F)c2=O)n1 [API 14] | 20.5 | 41.3 | 
Cn1cnc(Cn2c(=O)[nH]/c(=N\c3cc4cn(C)nc4cc3Cl)n(Cc3cc(F)c(F)cc3F)c2=O)n1 [API 15] | 10.2 | 15.8 | 
Cn1cnc(Cn2c(=O)[nH]/c(=N\c3cc4cn(C)nc4cc3Cl)n(Cc3cc(F)c(F)cc3F)c2=O)n1 [API 16] | 38.3 | 70.5 | 
Cn1cnc(Cn2c(=O)[nH]/c(=N\c3cc4cn(C)nc4cc3Cl)n(Cc3cc(F)c(F)cc3F)c2=O)n1 [API 17] | 35.4 | 65.7 | 
Cn1cnc(Cn2c(=O)[nH]/c(=N\c3cc4cn(C)nc4cc3Cl)n(Cc3cc(F)c(F)cc3F)c2=O)n1 [crystal form A, (6E)-6-[(6-chloro-2-methyl-2H-indazol-5-yl)imino]-3-[(1-methyl-1H-1,2,4-triazol-3-yl)methyl]-1-(2,4,5-trifluorobenzyl)-1,3,5-triazine-2,4-dione fumaric acid] |  |  | Hygroscopicity ([2]; DVS): almost no hygroscopicity; Crystal form stability, XRPD before and after DVS experiment ([2]; FIG. 3): very stable, is not prone to crystalline transformation; DVS weight loss ([2]; at 0% RH): 0.02%; DVS weight gain ([2]; at 80% RH): 0.06%; Stability (appearance, purity, dissociation, crystalline transformation) ([3]; 40° C. and 75% relative humidity (RH), within 2 months): stable; Stability (appearance and purity) ([3]; high temperature, high humidity, and light irradiation, within 30 days): stable; TGA decomposition temperature ([4]; nitrogen): higher than 240 °C; TGA weight loss ([4]; heated to 150° C.): basically no weight loss
